Results: the NIST ThermoML archive (doi:10.1016/j.jct.2012.06.031)
± gives the expanded uncertainty stated by the source.

Key:
[1] = refractive index (Na D-line) (dimensionless); conditions: 101.33 kPa, Liquid, Standard Abbe refractometry
[2] = 101 kPa, Liquid; for viscosity: Concentric cylinders viscometry; for mass density: Vibrating tube method
[3] = refractive index (Na D-line) (dimensionless); xn = mol fraction of the nth substance listed; conditions: 101 kPa, Liquid, Standard Abbe refractometry, x2 = 0
[4] = xn = mol fraction of the nth substance listed; conditions: 101 kPa, Liquid, x2 = 0; for viscosity: Concentric cylinders viscometry; for mass density: Vibrating tube method

CC(O)CO (stereo not given) [1,2-propanediol]
Conditions	mass density, [2] [kg/m3]	refractive index, [1]	viscosity, [2] [mPa·s]
288.15 K	1040.08 ± 0.14	1.43411 ± 0.00033	81.21 ± 0.6
293.15 K	1036.46 ± 0.14	1.43247 ± 0.00033	58.75 ± 0.25
298.15 K	1032.8 ± 0.14	1.43081 ± 0.00033	43.44 ± 0.2
303.15 K	1029.09 ± 0.14	1.42915 ± 0.00033	32.75 ± 0.15
308.15 K	1025.34 ± 0.13	1.42751 ± 0.00033	25.16 ± 0.12
313.15 K	1021.55 ± 0.13	1.42581 ± 0.00033	19.65 ± 0.092
318.15 K	1017.73 ± 0.13	1.42407 ± 0.00033	15.58 ± 0.071
323.15 K	1013.86 ± 0.13	1.4223 ± 0.00033	12.55 ± 0.058

OCCCO [propan-1,3-diol]
Conditions	mass density, [2] [kg/m3]	refractive index, [1]	viscosity, [2] [mPa·s]
288.15 K	1056.12 ± 0.95	1.44089 ± 0.00051	66.53 ± 0.72
293.15 K	1053.02 ± 0.95	1.43947 ± 0.00051	51.91 ± 0.53
298.15 K	1049.91 ± 0.94	1.43805 ± 0.00051	41.04 ± 0.44
303.15 K	1046.79 ± 0.93	1.43665 ± 0.00051	32.84 ± 0.35
308.15 K	1043.64 ± 0.93	1.43526 ± 0.00051	26.58 ± 0.28
313.15 K	1040.49 ± 0.92	1.43387 ± 0.00051	21.74 ± 0.23
318.15 K	1037.31 ± 0.91	1.43244 ± 0.00051	17.95 ± 0.19
323.15 K	1034.12 ± 0.91	1.43099 ± 0.00051	14.96 ± 0.16

c1ccncc1 [pyridine]
Conditions	mass density, [2] [kg/m3]	refractive index, [1]	viscosity, [2] [mPa·s]
288.15 K	988.061 ± 0.12	1.51184 ± 0.00031	1.03 ± 0.0089
293.15 K	983.038 ± 0.12	1.509 ± 0.00031	0.9588 ± 0.0087
298.15 K	978.006 ± 0.12	1.50616 ± 0.00031	0.8943 ± 0.0086
303.15 K	972.967 ± 0.12	1.50331 ± 0.00031	0.8355 ± 0.0085
308.15 K	967.913 ± 0.12	1.50048 ± 0.00031	0.7837 ± 0.0084
313.15 K	962.849 ± 0.12	1.49769 ± 0.00031	0.7354 ± 0.0083
318.15 K	957.769 ± 0.12	1.49493 ± 0.00031	0.6912 ± 0.0082
323.15 K	952.673 ± 0.12	1.49219 ± 0.00031	0.6507 ± 0.0081

CCCO [propan-1-ol] + c1ccncc1
Conditions	mass density, [4] [kg/m3]	refractive index, [3]	viscosity, [4] [mPa·s]
288.15 K	807.947 ± 0.15	1.3878 ± 0.00031	2.514 ± 0.013
293.15 K	803.963 ± 0.15	1.38576 ± 0.00031	2.208 ± 0.012
298.15 K	799.953 ± 0.15	1.38369 ± 0.00031	1.95 ± 0.011
303.15 K	795.915 ± 0.15	1.38162 ± 0.00031	1.727 ± 0.011
308.15 K	791.84 ± 0.15	1.37918 ± 0.00031	1.542 ± 0.01
313.15 K	787.721 ± 0.15	1.37695 ± 0.00031	1.378 ± 0.0097
318.15 K	783.553 ± 0.15	1.37469 ± 0.00031	1.236 ± 0.0094
323.15 K	779.334 ± 0.15	1.37231 ± 0.00031	1.124 ± 0.0091

OCC(O)CO [glycerol]
Conditions	mass density, [2] [kg/m3]	refractive index, [1]	viscosity, [2] [mPa·s]
288.15 K	1264.08 ± 0.22	1.47552 ± 0.00033	2298.3 ± 120
293.15 K	1261.03 ± 0.22	1.47427 ± 0.00033	1425.1 ± 65
298.15 K	1257.94 ± 0.22	1.47301 ± 0.00033	911.98 ± 36
303.15 K	1254.83 ± 0.22	1.47175 ± 0.00033	600.83 ± 20
308.15 K	1251.68 ± 0.21	1.47048 ± 0.00033	406.93 ± 12
313.15 K	1248.48 ± 0.21	1.4692 ± 0.00033	282.61 ± 6.7
318.15 K	1245.24 ± 0.21	1.46791 ± 0.00033	201.03 ± 3.9
323.15 K	1242.08 ± 0.21	1.46674 ± 0.00033	147.15 ± 2.2
